Earlier results, collected in patent publication US20090223408A1, “Use of Sub-Micron Copper Salt Particles in Wood Preservation” (PhibroWood, LLC, priority 2004, published 2009).
Where two headings read alike, the source gives them in different places.

Experiments:
[1] = baseline about 4 mg copper per liter

Solubility of copper (pH 4) | Solubility of copper (pH 7) | Solubility of copper (pH 10) | Compound | leachate copper concentration relative to CCA baseline [1]
640 ppm | 2 ppm | about 0.01 ppm | [OH][Cu][OH] [copper hydroxide, copper(II) hydroxide] | 
 |  |  | copper citrate | over fifteen times the baseline concentration
